In assay [1] the test system is p27^kip1 in BT474-M3 breast tumor xenografts. The assay is described as follows: p27kip1 staining of xenograft tumors. The assay is classed as in vivo. The settings on record: 30 mg/kg every 3 days, 4 doses.
The test system of assay [2] is CD31 in BT474-M3 breast cancer xenograft tumors. The assay is described as follows: CD31 staining (vessel density) of xenograft tumors. The assay is classed as in vivo. Particulars: 30 mg/kg every 3 days, 4 doses. An excerpt: Tumors are stained for the presence of vascular marker CD31.
The test system of assay [3] is Calu-3 (human lung adenocarcinoma) xenograft. Description: Calu-3 xenograft model. The assay is classed as in vivo, mice. The settings on record: Calu-3, 30 mg/kg every 3 days. An excerpt:
(§1) Calu-3 (human lung adenocarcinoma; FIG. 17A), SKOV-3 (human ovarian adenocarcinoma; FIG. 17B), NCI-N87 (human gastric carcinoma; FIG. 17C), ACHN (human kidney adenocarcinoma; FIG. 17D), and MDA-MB-361 (human breast adenocarcinoma; FIG. 17E) xenograft model are shown.

The subject of assay [4] is ACHN (human kidney adenocarcinoma) xenograft. The assay is described as follows: ACHN xenograft model. In kind it is in vivo, mice. Particulars: ACHN (4.5×10^4 ErbB2 receptors/cell), 30 mg/kg every 3 days.
From the text: as §1

Assay [5] deals with Ki67 in BT474-M3 breast tumor xenografts. The assay is described as follows: Ki67 staining of xenograft tumors. In kind it is in vivo. The settings on record: 30 mg/kg every 3 days, 4 doses.
Assay [6] concerns phosphorylated ErbB3 in BT-474-M3 xenograft tumors. The assay is described as follows: pErbB3 Western blot of xenograft tumors. The assay is classed as in vivo. The settings on record: 30 mg/kg every 3 days, 4 doses, harvested 24 hours after final dose. An excerpt:
Equal quantities of protein are loaded in each lane and total protein levels are controlled by probing for beta tubulin.
(In general: A western blot detects proteins with antibodies after separation by electrophoresis.)

The subject of assay [7] is ErbB3 phosphorylation in 9 tumor cell lines. The assay is described as follows: pErbB3 inhibition ELISA across 9 tumor cell lines versus ErbB2 expression. In kind it is cell-based. The settings on record: 5×10^4 to 2.4×10^6 ErbB2 receptors/cell. For orientation: ELISA stands for enzyme-linked immunosorbent assay.
In assay [8] the test system is 10 tumor xenograft models. Description: activity in 10 tumor xenograft models versus ErbB2 expression. The assay is classed as in vivo. Particulars: low to high ErbB2.
Assay [9] has as its system ErbB3 phosphorylation in ZR75-1 breast cancer cells. Description: agonistic activity: pErbB3 ELISA in ZR75-1 cells without HRG. In kind it is cell-based. Particulars: serum starved ZR75-1 cells, 1 μM, 24 hours, no HRG. The protocol: Except as noted, ELISA reagents for total and phospho-ErbB3 ELISAs are purchased from R&D Systems as DUOSET kits. 96-well NUNC MAXISORB plates are coated with 50 μl of an antibody and incubated overnight at room temperature. Next morning, plates are washed 3 times with 1000 μl/well in a BIOTEK plate washer with Dulbecco's phosphate buffered saline without calcium or magnesium (PBS) with added Tween detergent (PBST) (0.05% Tween-20). […] The plates are washed 3 times with 1000 μl/well in the BIOTEK plate washer with PBST. Cells are grown at 37° C. and 5% carbon dioxide, washed with cold PBS, then harvested with mammalian protein extract (MPER) lysis buffer (Pierce, 78505) to which 150 mM NaCl, 5 mM sodium pyrophosphate, 10 uM bpV (phen), 50uM phenylarsine, 1 mM sodium orthovanadate, and protease inhibitor cocktail (Sigma, P2714) is added. 50 μL of cell lysates and standards diluted in 50% Lysis buffer and 1% BSA are used in duplicates for further processing. Samples are incubated for 2hrs at 4° C. on a plate shaker and washed as before. About 50 μl of a detection antibody diluted in 2% BSA, PBST is added and incubated for about 1-2 hrs at room temperature. […] About 50 μL of SUPERSIGNAL ELISA Pico (Thermo Scientific) substrate is added and the plate is read using a FUSION plate reader. […]
Cells are lysed and the pErbB3 content of the lysates is assessed by ELISA generally as described above.

Assay [10] deals with wild type ADRr xenografts. The assay is described as follows: wild type ADRr breast cancer xenograft model. In kind it is in vivo, nude mice. The settings on record: 30 mg/kg every 3 days.
Assay [11] deals with NCI-N87 (human gastric carcinoma) xenograft. The assay is described as follows: NCI-N87 xenograft model. The assay is classed as in vivo, mice. The settings on record: NCI-N87, 30 mg/kg every 3 days.
From the text: as §1

Assay [12] relates to Cyclin D1 in BT-474-M3 cells. Description: Cyclin D1 Western blot. The settings on record: 72 hours. The assay is classed as cell-based. An excerpt:
The cytoskeleton protein vinculin is used as a protein loading control in this experiment.

In assay [13] the test system is AKT phosphorylation in ZR75-30 cells. The assay is described as follows: HRG-induced AKT phosphorylation ELISA in ZR75-30. The settings on record: ZR75-30, dose titration 24 hours, 5 nM HRG 1β EGF domain 10 minutes. The assay is classed as cell-based, human.
Assay [14] addresses T1, ErbB2-associated complexes in BT474 breast cancer cells (Homo sapiens, UniProt P04626+P21860).
T1 construct: endogenous in cells; host or cells: BT474 breast cancer cells
Description: immunoprecipitation-Western blot of ErbB2-associated complexes. In kind it is cell-based. The settings on record: BT474, dose range 24 hours, heregulin stimulation. An excerpt:
ErbB2-associated complexes are isolated from cell lysates using an anti-ErbB2 antibody followed by Western blot analysis to detect pErbB2 and pErbB3 and the corresponding total protein levels.

The test system of assay [15] is BT-474-M3 shPTEN xenografts. The assay is described as follows: BT-474-M3 shPTEN xenografts (reduced PTEN activity). Particulars: 30 mg/kg B2B3-1 every 3 days or 10 mg/kg trastuzumab every week, i.p. The assay is classed as in vivo, nude mice.
Description: (§2) ShRNA technology is applied to knock out the activity of the tumor suppressor gene phosphatase and tensin homolog (PTEN) in BT-474-M3 breast cancer cells. Briefly, cultured BT-474-M3 cells are transfected with shPTEN or shControl RNA by retroviral transfection. Transfected cells with reduced PTEN are selected using FACS and subsequently injected subcutaneously into the right flank of nude mice to establish xenograft tumors. Cells transfected with a control vector are injected into the left flank of the same mouse. […] All injections are done i.p.
In assay [16] the test system is control BT-474-M3 breast cancer cell xenografts. Description: BT-474-M3 shControl xenografts. In kind it is in vivo, nude mice. The settings on record: 30 mg/kg B2B3-1 every 3 days or 10 mg/kg trastuzumab every week, i.p.
Description: as §2
The subject of assay [17] is signaling proteins in BT474 breast cancer cells. The assay is described as follows: Western blot of signaling proteins in BT474 cells. In kind it is cell-based. Particulars: BT474, dose range 24 hours, heregulin stimulation. As to the method:
Levels of pErbB2, pErbB3, pErk and pAKT and their corresponding total protein levels are determined on cell lysates by Western blot analysis.

The subject of assay [18] is MDA-MB-361 (human breast adenocarcinoma) xenograft. Description: MDA-MB-361 xenograft model. In kind it is in vivo, mice. Particulars: MDA-MB-361, 30 mg/kg every 3 days.
From the text: as §1

Here are results for one substance from patent US20110059076A1, “HUMAN SERUM ALBUMIN LINKERS AND CONJUGATES THEREOF” (priority 2008, published 2011).

“Also recorded” adds a separate entry of the source.

For the substance “B2B3-1: bispecific scFv antibody fusion: anti-ErbB3 scFv H3 and anti-ErbB2 scFv B1D2 joined by a modified human serum albumin (HSA) linker”, the “nuclear staining for p27^kip1 compared to HSA control tumors” value in assay [1] was “Increased nuclear staining; also recorded: translocation of p27^kip1 to the nucleus”. For the same substance, the “vessel density (CD31) compared to HSA treated tumors” value in assay [2] is given as “marked decrease in vessel density; also recorded: reduction of vessel density”. Further, the tumor size reduction entry in assay [3] is “efficacious”; in assay [4] it was “worked less well”; in assay [11], “efficacious”; in assay [18], “efficacious”. Moreover, the “Ki67 expression compared to HSA treated tumors” value in assay [5] was “reduced expression pattern; also recorded: reduction”. The “pErbB3 in tumors compared to HSA treated tumors” value in assay [6] is “significantly less pErbB3”. Also, the “% pErbB3 inhibition in relation to ErbB2 expression levels” value in assay [7] is “correlates positively”. In addition, the “xenograft response in relation to ErbB2 expression levels” value in [8] is recorded as “correlates positively”. In addition, in [9], the “levels of phosphorylated ErbB3 with B2B3-1 alone (agonistic activity)” value is “comparable to the levels in untreated cells; also recorded: does not stimulate ErbB3 phosphorylation”. Moreover, the xenograft response result in assay [10] is on record as “no response; also recorded: non-responder”. In [12], the “levels of Cyclin D1 compared to untreated cells” value is listed as “decrease”. Moreover, the “inhibition of HRG induced AKT phosphorylation” value in assay [13] is listed as “inhibits”. Also, in assay [14], the “ErbB3 and phospho-ErbB3 precipitated by the anti-ErbB2 antibody” value is reported as “crosslinks ErbB2 to ErbB3”. The “size of tumors formed by BT-474-M3 cells lacking expression of PTEN” value in assay [15] was “promoted a reduction”. Besides, the “size of tumors formed by control BT-474-M3 cells” value in assay [16] is recorded as “promoted a reduction”. Moreover, the “levels of pErbB2” value in assay [17] is reported as “reduced in a dose-dependent manner”. The “levels of pErbB3” value in [17] is “reduced in a dose-dependent manner”.
